Experimental data taken from patent US20150181881A1, “METHODS FOR CONTROLLING FUNGAL DISEASES IN MUSHROOM PRODUCTION” (DSM IP ASSETS B.V., priority 2012, published 2015).

How the values were obtained:
Trichoderma harzianum = experiment: In vitro antifungal activity in 96-well microtiter plates against Trichoderma harzianum; assay type: cell-based
Description: Subsequently, 100 μl of a Verticillium fungicola suspension prepared in PCB medium is used to inoculate each well with 5.0×10^3 spores/ml.
, the in vitro antifungal activity (%) of the individual active ingredients was assessed by calculating the reduction in mould growth observed in the presence of the active ingredient in comparison to the mould growth observed in the absence of the active ingredient. The expected antifungal activity (E in %) of the active ingredient combination was calculated according to the Colby equation (Colby, 1967): […]
wherein X and Y are the observed antifungal activities (in %) of the individual active ingredients X and Y, respectively. If the observed antifungal activity (O in %) of the combination exceeds the expected antifungal activity (E in %) of the combination and the resulting synergy factor O/E is thus >1.0, the combined application of the active ingredients leads to a synergistic antifungal effect.
Furthermore, Trichoderma harzianum was used for inoculation.

Verticillium fungicola = experiment: In vitro antifungal activity in 96-well microtiter plates against Verticillium fungicola; assay type: cell-based
Description: The following compositions are tested: • Control (no active ingredient), • 1.25 or 2.5 ppm natamycin (DSM Food Specialties, Delft, The Netherlands), • 0.5 ppm chlorothalonil, • 1.25 ppm natamycin+0.5 ppm chlorothalonil, • 2.5 ppm natamycin+0.5 ppm chlorothalonil. […] Subsequently, 100 μl of a Verticillium fungicola suspension prepared in PCB medium is used to inoculate each well with 5.0×10^3 spores/ml. […] After incubation of the microtiter plates for 3 and 5 days at 25° C., the in vitro antifungal activity (%) of the individual active ingredients was assessed by calculating the reduction in mould growth observed in the presence of the active ingredient in comparison to the mould growth observed in the absence of the active ingredient. The expected antifungal activity (E in %) of the active ingredient combination was calculated according to the Colby equation (Colby, 1967): […] wherein X and Y are the observed antifungal activities (in %) of the individual active ingredients X and Y, respectively.

[1] = Chlorothalonil 0.5 ppm, incubation 5 days at 25° C.

Measured: Observed antifungal activity O (%)

C[C@@H]1C/C=C/C=C/C=C/C=C/[C@H](O[C@@H]2O[C@H](C)[C@@H](O)[C@H](N)[C@@H]2O)C[C@@H]2O[C@](O)(C[C@@H](O)C[C@H]3O[C@@H]3/C=C/C(=O)O1)C[C@H](O)[C@H]2C(=O)O [Natamycin, natamycin]
0%: Trichoderma harzianum; Natamycin 1.25 ppm, incubation 5 days at 25° C. | Trichoderma harzianum; Natamycin 1.25 ppm, incubation 10 days at 25° C. | Trichoderma harzianum; Natamycin 1.25 ppm, incubation 17 days at 25° C. | Trichoderma harzianum; Natamycin 2.5 ppm, incubation 17 days at 25° C. | Verticillium fungicola; Natamycin 1.25 ppm, incubation 3 days at 25° C. | Verticillium fungicola; Natamycin 2.5 ppm, incubation 5 days at 25° C.

N#Cc1c(Cl)c(Cl)c(Cl)c(C#N)c1Cl [Chlorothalonil, 2,4,5,6-tetrachloroisophthalonitrile]
0%: Trichoderma harzianum; [1] | Trichoderma harzianum; Chlorothalonil 1.0 ppm, incubation 10 days at 25° C. | Trichoderma harzianum; Chlorothalonil 1.0 ppm, incubation 17 days at 25° C. | Trichoderma harzianum; Chlorothalonil 1.5 ppm, incubation 17 days at 25° C. | Verticillium fungicola; Chlorothalonil 0.5 ppm, incubation 3 days at 25° C. | Verticillium fungicola; [1]
